pIC50: −log10 of the molar value. ≈ marks a conversion by molar mass, not a printed value.
Tests used:
CTXM-15 β-lactamase = target: T1, CTXM-15 β-lactamase (Escherichia coli, UniProt Q9EXV5); assay: biochemical; format: biochemical; conditions: crude enzyme extract, 10 min preincubation at 37° C., nitrocefin 100 μM, PBS pH 7.0; read-out: CTXM-15 IC50 Range
T1 construct: The β-lactamases were extracted by four cycles of freezing and thawing followed by centrifugation; endogenous in cells; host or cells: Escherichia coli cells containing CTXM-15 (crude freeze-thaw extract)
Description: (§1) Isolation of β-lactamases. Crude β-lactamase extracts were prepared from 20 ml overnight cultures with shaking. Escherichia coli cells containing SHV-5 or CTXM-15 and Enterobacter cloacae cells containing P99 were further diluted 10-fold and grown to mid-log phase (OD at 600 nm, 0.5-0.8) in Mueller-Hinton II (MH-II) broth at 37° C. The cells were pelleted at 5000 g, washed and resuspended in 2 mL PBS pH 7.0. The β-lactamases were extracted by four cycles of freezing and thawing followed by centrifugation. β-lactamase activity in the extracts was measured with the chromogenic cephalosporin nitrocefin. The amount of protein in each β-lactamase preparation was determined by the bicinchoninic acid (BCA) assay.
(§2) β-lactamase Inhibition. To determine the level of inhibition of β-lactamase enzymes, compounds were diluted in PBS at pH 7.0 to yield concentrations between 100 and 0.005 μM in microtiter plates. An equal volume of diluted enzyme stock was added, and the plates were incubated at 37° C. for 10 min. Nitrocefin solution was then dispensed as substrate into each well at a final concentration of 100 μM, and the plates were immediately read with the kinetic program at 486 nm for 10 min on the SPECTRAMAX® Plus^384 (high-throughput microplate spectrophotometer; Molecular Devices Corp., Sunnyvale, Calif.). Maximum rates of metabolism were then compared to those in control wells (without inhibitors), and percentages of enzyme inhibition were calculated for each concentration of inhibitor. The concentration of inhibitor needed to reduce the initial rate of hydrolysis of substrate by 50% (IC50) was calculated as the residual activity of β-lactamase at 486 nm using the SoftMax Pro 5.0 software (Molecular Devices Corp.).

P99 AmpC β-lactamase = target: T2, P99 AmpC β-lactamase (Enterobacter cloacae, UniProt P05364); assay: biochemical; format: biochemical; conditions: crude enzyme extract, 10 min preincubation at 37° C., nitrocefin 100 μM, PBS pH 7.0; read-out: P99 AmpC IC50 Range
T2 construct: The β-lactamases were extracted by four cycles of freezing and thawing followed by centrifugation; endogenous in cells; host or cells: Enterobacter cloacae cells containing P99 (crude freeze-thaw extract)
Description: as §1, §2

SHV-5 β-lactamase = target: T3, SHV-5 β-lactamase (Klebsiella pneumoniae, UniProt P0A3M1); assay: biochemical; format: biochemical, Escherichia coli; conditions: crude enzyme extract, 10 min preincubation at 37° C., nitrocefin 100 μM, PBS pH 7.0; read-out: SHV-5 IC50 Range
T3 construct: The β-lactamases were extracted by four cycles of freezing and thawing followed by centrifugation; endogenous in cells; host or cells: Escherichia coli cells containing SHV-5 (crude freeze-thaw extract)
Description: as §1, §2

[1] = system: E. coli expressing the Class A ESBL SHV-5; format: cell-based; conditions: in the presence of fixed 8 μg/mL ceftazidime; CAMHB, 16-20 hours at 37° C.
Excerpt: (§3) To determine the ability of test compounds to potentiate the inhibition of the growth of bacterial strains producing beta-lactamase enzymes, classic cell based screening assays were employed. Four bacteria strains producing beta-lactamase enzymes were used: E. coli expressing the Class A Extended Spectrum Beta-Lactamase (ESBL) CTX-M-15, E. coli expressing the Class A ESBL SHV-5, E. cloacae expressing the Class C P99+, and K. pneumoniae expressing the Class A carbapenemase KPC-2. In order to evaluate the ability of test compounds to inhibit beta-lactamase activity, Applicants used a modification of the broth microdilution assay. The assay was conducted in Cation Adjusted Mueller Hinton Broth (CAMHB, BD #212322, BD Diagnostic Systems, Sparks, Md.). Bacteria strains were grown for 3-5 hours in CAMBH broth. All four strains were grown in presence of 50 μg/mL ampicillin to ensure resistance is maintained. In the meantime, test compounds were diluted in DMSO to a 0.1 mg/mL stock. The compounds were added to a microtiter plate and were diluted in 2-fold serial dilutions in CAMHB in a final concentration range of 32 μg/mL to 0.25 μg/mL. An overlay of CAMHB containing a cephalosporin was added to the compounds at a final static concentration of 8 μg/mL. […] Each of these compound plates are made in quadruplicate, one for each bacteria strain. In addition to the titration of test compounds the MICs of a panel of cephalosporins is also tested to ensure the strains are behaving consistently from test to test. Once the test compound and cephalosporin are added the plates can be inoculated. Inocula are conducted according to CLSI broth microdilution method. After inoculation the plates are incubated for 16-20 hours at 37° C. then the Minimal Inhibitory Concentration (MIC) of the test compound is determined visually.
(§4) Using the methodology described above, examples of the current invention were evaluated for their ability to inhibit the growth of β-lactamase producing bacteria in the presence of a β-lactam antibiotic.

[2] = system: K. pneumoniae expressing the Class A carbapenemase KPC-2; format: cell-based; conditions: in the presence of fixed 8 μg/mL ceftazidime; CAMHB, 16-20 hours at 37° C.
Excerpt: as §3, §4

[3] = system: E. coli expressing the Class A ESBL CTX-M-15; format: cell-based; conditions: in the presence of fixed 8 μg/mL cefotaxime; CAMHB, 16-20 hours at 37° C.
Excerpt: as §3, §4

[4] = system: E. cloacae expressing the Class C P99+; format: cell-based; conditions: in the presence of fixed 8 μg/mL ceftazidime; CAMHB, 16-20 hours at 37° C.
Excerpt: as §3, §4

[5] = system: E. coli expressing the Class A ESBL CTX-M-15; assay: microbe, parasite or virus in culture; format: cell-based; conditions: Escherichia coli, read-out: MIC alone, E. coli CTX-M-15

T2 sequence (P05364 21-381): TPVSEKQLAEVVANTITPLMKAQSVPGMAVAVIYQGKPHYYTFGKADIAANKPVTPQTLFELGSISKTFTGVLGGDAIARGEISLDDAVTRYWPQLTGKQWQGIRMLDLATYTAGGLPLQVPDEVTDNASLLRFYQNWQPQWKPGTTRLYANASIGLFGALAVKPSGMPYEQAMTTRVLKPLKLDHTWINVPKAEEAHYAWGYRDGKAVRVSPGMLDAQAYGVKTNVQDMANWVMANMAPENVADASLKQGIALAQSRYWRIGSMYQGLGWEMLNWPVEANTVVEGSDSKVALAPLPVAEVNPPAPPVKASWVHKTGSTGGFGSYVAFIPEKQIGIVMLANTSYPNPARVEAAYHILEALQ
T3 sequence (P0A3M1 22-286): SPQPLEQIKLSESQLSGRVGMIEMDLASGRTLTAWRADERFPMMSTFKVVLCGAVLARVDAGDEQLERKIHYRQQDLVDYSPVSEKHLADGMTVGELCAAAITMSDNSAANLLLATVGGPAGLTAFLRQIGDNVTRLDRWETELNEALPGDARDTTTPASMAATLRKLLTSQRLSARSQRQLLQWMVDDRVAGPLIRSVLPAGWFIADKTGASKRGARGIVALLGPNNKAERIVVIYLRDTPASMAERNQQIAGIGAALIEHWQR
T1 sequence (Q9EXV5 29-291): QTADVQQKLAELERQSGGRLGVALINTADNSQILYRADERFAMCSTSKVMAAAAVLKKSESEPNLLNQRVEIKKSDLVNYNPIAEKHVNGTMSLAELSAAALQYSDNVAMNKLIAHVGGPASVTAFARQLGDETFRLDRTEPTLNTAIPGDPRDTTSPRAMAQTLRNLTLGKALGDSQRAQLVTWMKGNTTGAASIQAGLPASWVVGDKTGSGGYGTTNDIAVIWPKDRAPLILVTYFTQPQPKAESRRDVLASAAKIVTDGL

SMILES | pIC50 (CTXM-15 β-lactamase) | pIC50 (P99 AmpC β-lactamase) | pIC50 (SHV-5 β-lactamase) | MIC of example compound, E. coli SHV-5 + 8 μg/mL CAZ [1] | MIC of example compound, K. pneumoniae KPC-2 + 8 μg/mL CAZ [2] | MIC of example compound, E. coli CTXM-15 + 8 μg/mL TAX [3] | MIC of example compound, E. cloacae P99+ + 8 μg/mL CAZ [4] | MIC [5] [µg/mL]
O=C(Cc1cccc(O)c1)N[C@@H](Cc1cccc(C(=O)O)c1)B(O)O [Example 22, (1R)-1-(3-Hydroxyphenylacetylamino)-2-(3-carboxyphenyl)ethyl-1-boronic acid] | > 7.00 | 6.00 to 7.00 | > 7.00 | C (C represents an MIC of <2 μg/mL) | B (B represents an MIC between 2 and 32 μg/mL) | B (B represents an MIC between 2 and 32 μg/mL) | B (B represents an MIC between 2 and 32 μg/mL) | 
O=C(Cc1ccsc1)N[C@@H](Cc1cccc(C(=O)O)c1)B(O)O [Example 29, (1R)-1-(2-thiophene-3-yl-acetylamino)-2-(3-carboxyphenyl)ethyl-1-boronic acid] | 6.00 to 7.00 | 6.00 to 7.00 | > 7.00 | 8 µg/mL | B (B represents an MIC between 2 and 32 μg/mL) | C (C represents an MIC of <2 μg/mL) | A (A represents an MIC>32 μg/mL) | 
COc1cccc(CC(=O)N[C@@H](Cc2cccc(C(=O)O)c2)B(O)O)c1 [Example 2, (1R)-1-(3-Methoxyphenylacetylamino)-2-(3-carboxyphenyl)ethyl-1-boronic acid] | > 7.00 | 6.00 to 7.00 | > 7.00 | B (B represents an MIC between 2 and 32 μg/mL) | B (B represents an MIC between 2 and 32 μg/mL) | B (B represents an MIC between 2 and 32 μg/mL) | A (A represents an MIC>32 μg/mL) | 
O=C(CCC(=O)c1cccs1)N[C@@H](Cc1cccc(C(=O)O)c1)B(O)O [Example 12, (1R)-1-(4-Oxo-4-thiophen-2-yl-butyrylamino)-2-(3-carboxyphenyl)ethyl-1-boronic acid] | 6.00 to 7.00 | > 7.00 | 6.00 to 7.00 | B (B represents an MIC between 2 and 32 μg/mL) | B (B represents an MIC between 2 and 32 μg/mL) | B (B represents an MIC between 2 and 32 μg/mL) | B (B represents an MIC between 2 and 32 μg/mL) | 
NCCOc1cccc(CC(=O)N[C@@H](Cc2cccc(C(=O)O)c2)B(O)O)c1 [Example 30, (1R)-1-{2-[3-(2-Amino-ethoxy)-phenyl]-acetylamino}-2-(3-carboxyphenyl)ethyl-1-boronic acid] | > 7.00 | 6.00 to 7.00 | 6.00 to 7.00 | B (B represents an MIC between 2 and 32 μg/mL) | B (B represents an MIC between 2 and 32 μg/mL) | B (B represents an MIC between 2 and 32 μg/mL) | B (B represents an MIC between 2 and 32 μg/mL) | 
O=C(Cc1cccs1)N[C@@H](Cc1ccc(F)c(C(=O)O)c1)B(O)O [Example 21, (1R)-1-(2-thiophene-2-yl-acetylamino)-2-(3-carboxy-4-fluorophenyl)ethyl-1-boronic acid] | > 7.00 | 6.00 to 7.00 | > 7.00 | C (C represents an MIC of <2 μg/mL) | B (B represents an MIC between 2 and 32 μg/mL) | C (C represents an MIC of <2 μg/mL) | B (B represents an MIC between 2 and 32 μg/mL) | 
CO/N=C(\C(=O)N[C@@H]1C(=O)N2C(C(=O)O)=C(COC(C)=O)CS[C@H]12)c1csc(N)n1 [cefotaxime] |  |  |  |  |  |  |  | 1020 (≈ 2250 µM)

Source: patent publication US20100317621A1, “BETA-LACTAMASE INHIBITORS” (priority 2007, published 2010)
